Reference: US4359583A, “Antibiotics TM-531 B and TM-531 C” (Taisho Pharmaceutical Co., Ltd., priority 1980, dated 1982)
Entries after “also recorded” stand apart in the source; their conditions may differ.

Assays:
[1] = Improving the feed efficiency when incorporated into feeds; assay type: in vivo; conditions: incorporated into feeds for poultry, hogs, etc.
[2] = system: Staphylococcus aureus Smith; assay: MIC, antibacterial activity on heart infusion agar; assay type: cell-based; conditions: inoculum 10^6 CFU/ml
Description: (§1) Using heart infusion agar as a medium the MIC (minimum inhibition concentration) of Antibiotics TM-531 B and TM-531 C against various bacteria were measured using an inoculum size of 10^6 CFU/ml, to determine its antibacterial activity.

[3] = system: Bacillus licheniformis; assay: MIC, antibacterial activity on heart infusion agar; assay type: cell-based; conditions: inoculum 10^6 CFU/ml
Description: as §1

[4] = system: Streptococcus faecalis ATCC 8043; assay: MIC, antibacterial activity on heart infusion agar; assay type: cell-based; conditions: inoculum 10^6 CFU/ml
Description: as §1

[5] = system: Micrococcus luteus NIHJ; assay: MIC, antibacterial activity on heart infusion agar; assay type: cell-based; conditions: inoculum 10^6 CFU/ml
Description: as §1

[6] = system: Staphylococcus epidermidis IID 866; assay: MIC, antibacterial activity on heart infusion agar; assay type: cell-based; conditions: inoculum 10^6 CFU/ml
Description: as §1

[7] = system: Staphylococcus aureus TPR-23; assay: MIC, antibacterial activity on heart infusion agar; assay type: cell-based; conditions: inoculum 10^6 CFU/ml
Description: as §1

[8] = system: Staphylococcus aureus FDA 209P; assay: MIC, antibacterial activity on heart infusion agar; assay type: cell-based; conditions: inoculum 10^6 CFU/ml
Description: as §1

[9] = system: Staphylococcus epidermidis TPR-25; assay: MIC, antibacterial activity on heart infusion agar; assay type: cell-based; conditions: inoculum 10^6 CFU/ml
Description: as §1

[10] = system: Escherichia coli NIHJ C-2; assay: MIC, antibacterial activity on heart infusion agar; assay type: cell-based; conditions: inoculum 10^6 CFU/ml
Description: as §1

[11] = system: Pseudomonas aeruginosa IID 1052; assay: MIC, antibacterial activity on heart infusion agar; assay type: cell-based; conditions: inoculum 10^6 CFU/ml
Description: as §1

[12] = system: Bacillus subtilis ATCC 6633; assay: MIC, antibacterial activity on heart infusion agar; assay type: cell-based; conditions: inoculum 10^6 CFU/ml
Description: as §1

[13] = Solubility in solvents; assay type: physicochemical; conditions: measured as the sodium salt
[14] = system: gram-negative bacteria; assay: Physiological properties: growth inhibition; assay type: cell-based; conditions: in words
[15] = system: yeasts; assay: Physiological properties: growth inhibition; assay type: cell-based; conditions: in words
[16] = system: gram-positive bacteria; assay: Physiological properties: growth inhibition; assay type: cell-based; conditions: in words
[17] = Classification of Nature (basic, acidic or neutral); assay type: physicochemical; conditions: measured as the sodium salt
[18] = system: protozoa as hog dysentery, coccidium, toxoplasma and trypanosoma; assay: Physiological properties: growth inhibition; assay type: cell-based; conditions: in words
[19] = system: plant pathogenic microorganisms; assay: Physiological properties: growth inhibition; assay type: cell-based; conditions: in words

## CC/C=C(\C[C@@]1(C)COC2(CC[C@@](C)([C@H]3C[C@H](O[C@@H]4C[C@@H](O)[C@H](OC)[C@@H](C)O4)[C@@H](C)C4(O[C@@H](C5O[C@@](O)(CO)[C@H](C)C[C@@H]5C)C[C@H]4C)O3)O2)C[C@@H]1O)C(=O)C(C)CC(C)C(=O)[O-].[Na+] (some centres unmarked) [TM-531 C]
[1]
  improving the feed efficiency: effective
[2]
  MIC (minimum inhibition concentration): 25 µg/mL
[3]
  MIC (minimum inhibition concentration): 12.5 µg/mL
[4]
  MIC (minimum inhibition concentration): 12.5 µg/mL
[5]
  MIC (minimum inhibition concentration): 12.5 µg/mL
[6]
  MIC (minimum inhibition concentration): 25 µg/mL
[7]
  MIC (minimum inhibition concentration): 50 µg/mL
[8]
  MIC (minimum inhibition concentration): 12.5 µg/mL
[9]
  MIC (minimum inhibition concentration): 25 µg/mL
[10]
  MIC (minimum inhibition concentration): > 100 µg/mL
[11]
  MIC (minimum inhibition concentration): > 100 µg/mL
[12]
  MIC (minimum inhibition concentration): 25 µg/mL
[13]; methanol, ethanol, acetone, ethyl acetate, n-hexane, chloroform and benzene
  Solubility in organic solvents: soluble
[13]; water
  Solubility in water: Insoluble
[14]
  activity against gram-negative bacteria: ineffective
[15]
  activity against yeasts: ineffective
[16]
  growth inhibition of gram-positive bacteria: inhibits the growth; also recorded: excellent growth inhibitory activity
[17]
  Classification of Nature (basic, acidic or neutral): Acidic
[18]
  growth inhibition of protozoa: inhibits the growth; also recorded: excellent growth inhibitory activity
[19]
  growth inhibition of plant pathogenic microorganisms: inhibits the growth; also recorded: excellent growth inhibitory activity
